Among the test systems are CAKI-1 renal; CCRF-CEM leukemia; OVCAR-4 ovarian; SK-MEL-2 melanoma; PC-3 prostate; KM12 colon; HOP-62 NSCLC; TK-10 renal; SNB-19 CNS; M14 melanoma.
Assay in all cases: DTP human tumour cell line panel, 48 h

The results in this text go back to PubChem BioAssay (NCI).

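Assay format: 96-well plates, 48-hour exposure. GI50: concentration for 50% inhibition of growth. Definition used: TGI = concentration required for complete inhibition of growth.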

What is called GI50 is the concentration giving 50% growth inhibition. In general, TGI refers to the concentration at which net growth stops. `CCC(c1ccc(OC)cc1)C(CC)c1ccc(O)c(CN2CCCC2)c1` (stereo not given): the GI50 in the experiment with CAKI-1 renal is 6.1 µM; in the experiment on CCRF-CEM leukemia, 3.56 µM; with OVCAR-4 ovarian, 2.54 µM; with SK-MEL-2 melanoma, 1.95 µM; in the experiment with PC-3 prostate it was 3.38 µM; in the experiment on KM12 colon, 3.72 µM. Moreover, the GI50 is 3.46 µM in the experiment with HOP-62 NSCLC, 2.35 µM in the experiment on TK-10 renal, 4.39 µM in the experiment with SNB-19 CNS and 2.15 µM in the experiment with M14 melanoma. Further, the TGI in the experiment with CAKI-1 renal stood at 20 µM; in the experiment with CCRF-CEM leukemia it was 13.5 µM; in the experiment with OVCAR-4 ovarian, 15.2 µM; in the experiment on SK-MEL-2 melanoma, 4.03 µM; in the experiment with PC-3 prostate, 14.3 µM; in the experiment with KM12 colon it was 15.3 µM. In addition, the TGI was 13.4 µM in the experiment on HOP-62 NSCLC, 10.8 µM in the experiment on TK-10 renal, 17.2 µM in the experiment with SNB-19 CNS and 5.08 µM with M14 melanoma.
Regarding `COc1cccc(-c2nc(-c3ccc(NC(=O)c4ccccc4)cc3)[nH]c2-c2ccnc(Br)c2)c1`, the GI50 in the experiment on CAKI-1 renal was 2.21 µM; in the experiment on CCRF-CEM leukemia, 3.15 µM; with OVCAR-4 ovarian, 4.9 µM; in the experiment on SK-MEL-2 melanoma it was 2.93 µM; in the experiment with PC-3 prostate, 3.25 µM; in the experiment on KM12 colon, 2.29 µM. For the same compound, the GI50 in the experiment on HOP-62 NSCLC is 2.82 µM; in the experiment on TK-10 renal it was 6.92 µM; with SNB-19 CNS it was 3.87 µM; in the experiment with M14 melanoma it was 2.91 µM. Besides, the TGI in the experiment with CAKI-1 renal is 8.02 µM; in the experiment on CCRF-CEM leukemia, above 100 µM; in the experiment on OVCAR-4 ovarian, above 100 µM; with SK-MEL-2 melanoma, above 100 µM; with PC-3 prostate, above 100 µM; with KM12 colon, above 100 µM. The TGI with HOP-62 NSCLC, with TK-10 renal, in the experiment on SNB-19 CNS and in the experiment with M14 melanoma was above 100 µM in each case.
On to `O=C1/C(=C/c2ccccc2)CN(CCC(=O)N2C/C(=C\c3ccccc3)C(=O)/C(=C/c3ccccc3)C2)C/C1=C\c1ccccc1`, for which the GI50 was 8.5 µM in the experiment with CAKI-1 renal; 0.687 µM in the experiment with CCRF-CEM leukemia; 18.8 µM with OVCAR-4 ovarian; 17.5 µM in the experiment with SK-MEL-2 melanoma; 6.02 µM in the experiment with PC-3 prostate; 0.911 µM with KM12 colon. In addition, the GI50 was 19.2 µM with HOP-62 NSCLC, 18.3 µM with TK-10 renal, 13.2 µM in the experiment with SNB-19 CNS and 4.13 µM in the experiment on M14 melanoma. For the same compound, the total growth inhibition concentration (TGI) is 41.1 µM in the experiment with CAKI-1 renal; above 100 µM in the experiment with CCRF-CEM leukemia; 83.1 µM in the experiment with OVCAR-4 ovarian; 38.1 µM with SK-MEL-2 melanoma; above 69.9 µM in the experiment on PC-3 prostate; 7.48 µM with KM12 colon. The TGI in the experiment on HOP-62 NSCLC was 49.1 µM; in the experiment on TK-10 renal, 43.9 µM; in the experiment on SNB-19 CNS it was above 93.4 µM; with M14 melanoma, above 77.9 µM.
On to `NC(=O)c1cc(Cl)ccc1NC(=O)c1ccccc1-c1ccccc1`, for which the GI50 with CAKI-1 renal was 0.735 µM; in the experiment with CCRF-CEM leukemia it was 0.499 µM; with OVCAR-4 ovarian, 0.798 µM; in the experiment on SK-MEL-2 melanoma, 0.288 µM; in the experiment on PC-3 prostate, 0.567 µM; in the experiment with KM12 colon, 0.872 µM. Further, the GI50 was 0.902 µM in the experiment with HOP-62 NSCLC, 3.69 µM in the experiment on TK-10 renal, 0.709 µM with SNB-19 CNS and 0.427 µM with M14 melanoma. The TGI with CAKI-1 renal is 64.3 µM; with CCRF-CEM leukemia, above 100 µM; in the experiment with OVCAR-4 ovarian, above 100 µM; with SK-MEL-2 melanoma, 0.799 µM; with PC-3 prostate, above 100 µM; in the experiment on KM12 colon, 46.3 µM. The TGI with HOP-62 NSCLC is above 100 µM; in the experiment with TK-10 renal, 48 µM; in the experiment on SNB-19 CNS it was above 100 µM; in the experiment with M14 melanoma, 3.96 µM.
Consider `C[C@@H](Oc1cc(NS(=O)(=O)N2CCC2)nc(SCc2cccc(F)c2F)n1)[C@@H](O)CO`, for which the GI50 with CAKI-1 renal, with CCRF-CEM leukemia, in the experiment with OVCAR-4 ovarian, with SK-MEL-2 melanoma, in the experiment on PC-3 prostate and with KM12 colon was above 100 µM each time. Also, the GI50 with HOP-62 NSCLC, in the experiment with TK-10 renal, in the experiment on SNB-19 CNS and in the experiment with M14 melanoma was above 100 µM in each case. Moreover, the TGI with CAKI-1 renal, in the experiment on CCRF-CEM leukemia, in the experiment on OVCAR-4 ovarian, in the experiment with SK-MEL-2 melanoma, with PC-3 prostate and in the experiment on KM12 colon was above 100 µM in each case. The TGI in the experiment with HOP-62 NSCLC, in the experiment on TK-10 renal, with SNB-19 CNS and with M14 melanoma was above 100 µM in each case.
Consider `NCCCn1c2c(c3cc4c(cc3c1=O)OCO4)C(=O)c1ccccc1-2`, for which the GI50 was 0.688 µM in the experiment with CAKI-1 renal; 0.0279 µM in the experiment with CCRF-CEM leukemia; 0.199 µM in the experiment with OVCAR-4 ovarian; 2.91 µM with SK-MEL-2 melanoma; 0.134 µM in the experiment with PC-3 prostate; 0.757 µM in the experiment on KM12 colon. Moreover, the GI50 with HOP-62 NSCLC is 0.187 µM; with TK-10 renal, 1.98 µM; with SNB-19 CNS, 4.19 µM; in the experiment with M14 melanoma it was 0.43 µM. Moreover, the TGI in the experiment with CAKI-1 renal was 2.22 µM; in the experiment with CCRF-CEM leukemia it was 0.379 µM; in the experiment on OVCAR-4 ovarian, 0.721 µM; with SK-MEL-2 melanoma, above 70.3 µM; in the experiment with PC-3 prostate it was 0.6 µM; in the experiment with KM12 colon it was 2.13 µM. Moreover, the TGI in the experiment with HOP-62 NSCLC was 0.729 µM; in the experiment with TK-10 renal it was 5.75 µM; in the experiment with SNB-19 CNS, above 100 µM; with M14 melanoma, 1.1 µM.
Turning to `CN(C1=NS(=O)(=O)N=C(N(C)c2ccccc2)O1)c1ccccc1`, the TGI with CAKI-1 renal was 45.4 µM; in the experiment on CCRF-CEM leukemia it was above 100 µM; in the experiment with OVCAR-4 ovarian, 51.5 µM; in the experiment on SK-MEL-2 melanoma it was 38 µM; in the experiment on PC-3 prostate, above 100 µM; in the experiment on KM12 colon, 34.4 µM. Besides, the TGI was determined as 41.9 µM in the experiment with HOP-62 NSCLC, 80.2 µM in the experiment on TK-10 renal, 43.4 µM in the experiment with SNB-19 CNS and 38.9 µM with M14 melanoma.
With `CCOC(=O)C#Cc1ccc([N+](=O)[O-])cc1`, the TGI turned out to be 3.47 µM in the experiment with CAKI-1 renal; 4.05 µM with CCRF-CEM leukemia; 23.3 µM in the experiment with OVCAR-4 ovarian; 11.6 µM with SK-MEL-2 melanoma; 8.54 µM in the experiment on PC-3 prostate; 3.81 µM with KM12 colon. Also, the TGI in the experiment on HOP-62 NSCLC came to 11.3 µM; in the experiment with TK-10 renal, 27.4 µM; in the experiment with SNB-19 CNS, 25.7 µM; with M14 melanoma, 5.34 µM.
`CCC1CCCCN1C(=S)N/N=C(\C)c1ccccn1` (stereo not given): the GI50 with CAKI-1 renal was 0.0466 µM; with CCRF-CEM leukemia, 0.0414 µM; in the experiment on OVCAR-4 ovarian, 0.0364 µM; in the experiment on SK-MEL-2 melanoma it was 0.0733 µM; with PC-3 prostate, 0.0195 µM; with KM12 colon, 0.0732 µM. The GI50 is 0.0504 µM in the experiment with HOP-62 NSCLC, 0.191 µM in the experiment on TK-10 renal, 0.154 µM in the experiment with SNB-19 CNS and 0.0358 µM in the experiment on M14 melanoma. Besides, the TGI was 1.83 µM with CAKI-1 renal; above 100 µM in the experiment with CCRF-CEM leukemia; 3.57 µM in the experiment on OVCAR-4 ovarian; 1.65 µM with SK-MEL-2 melanoma; 2.99 µM in the experiment on PC-3 prostate; 1.52 µM in the experiment on KM12 colon. Besides, the TGI is 1.96 µM with HOP-62 NSCLC, 2.56 µM in the experiment with TK-10 renal, 4.79 µM in the experiment with SNB-19 CNS and 1.96 µM with M14 melanoma.
Regarding `CN(C)CCCN=c1cc2c(=O)n(CCCN(C)C)c(=O)c3c(NCCCN(C)C)cc4c(O)n(CCCN(C)C)c(=O)c1c4c3-2`, the GI50 is 6.21 µM with CAKI-1 renal; 5.84 µM with CCRF-CEM leukemia; 1.83 µM in the experiment on OVCAR-4 ovarian; 1.37 µM in the experiment with SK-MEL-2 melanoma; 2.79 µM in the experiment with PC-3 prostate; 2.36 µM in the experiment with KM12 colon. Further, the GI50 is 0.657 µM with HOP-62 NSCLC, 1.55 µM in the experiment with TK-10 renal, 1.51 µM in the experiment with SNB-19 CNS and 5.87 µM in the experiment on M14 melanoma. The TGI in the experiment with CAKI-1 renal is 29.4 µM; in the experiment with CCRF-CEM leukemia, 54.8 µM; with OVCAR-4 ovarian it was 7.9 µM; in the experiment on SK-MEL-2 melanoma it was 5.08 µM; in the experiment on PC-3 prostate, 34.1 µM; in the experiment with KM12 colon, 16.4 µM. Besides, the TGI was determined as 5.19 µM in the experiment with HOP-62 NSCLC, 5.95 µM in the experiment on TK-10 renal, 19.7 µM in the experiment with SNB-19 CNS and 19.7 µM with M14 melanoma.
Regarding `O=C1CCC2=C3C4CCCCC4C(=O)C4CCCC(OC2C1)C34` (stereo not given), the GI50 is 1.34 µM in the experiment with CAKI-1 renal; 1.34 µM with CCRF-CEM leukemia; 1.79 µM in the experiment on OVCAR-4 ovarian; 1.38 µM in the experiment on SK-MEL-2 melanoma; 2.57 µM in the experiment on PC-3 prostate; 1.75 µM with KM12 colon. For the same compound, the GI50 in the experiment on HOP-62 NSCLC is 2.72 µM; in the experiment on TK-10 renal, 6.36 µM; in the experiment with SNB-19 CNS, 2.59 µM; with M14 melanoma, 1.28 µM. Moreover, the TGI with CAKI-1 renal was 5.47 µM; in the experiment on CCRF-CEM leukemia it was 8.08 µM; in the experiment on OVCAR-4 ovarian it was above 25.1 µM; in the experiment with SK-MEL-2 melanoma, 4.14 µM; in the experiment on PC-3 prostate, above 29.6 µM; in the experiment with KM12 colon it was 5.46 µM. In addition, the TGI was 32.8 µM in the experiment on HOP-62 NSCLC, above 29.5 µM with TK-10 renal, above 100 µM in the experiment with SNB-19 CNS and 4.23 µM in the experiment with M14 melanoma.
